Entries after “also recorded” stand apart in the source; their conditions may differ.
Assays:
[1] = test system: IFN-α/pSTAT3 pathway; assay: MDZ DDI study ex vivo IFN-α/pSTAT3 in CD4+ T-cells; conditions: 150 mg q.d., Day 6, ex vivo stimulation of whole blood
[2] = test system: IFN-α/pSTAT1 pathway; assay: MDZ DDI study ex vivo IFN-α/pSTAT1 in CD4+ T-cells; conditions: 150 mg q.d., Day 6, ex vivo stimulation of whole blood
[3] = test system: IL6/pSTAT3 pathway; assay: MDZ DDI study ex vivo IL6/pSTAT3 in CD4+ T-cells; conditions: 150 mg q.d., Day 6, ex vivo stimulation of whole blood
[4] = test system: IL2/pSTAT5 pathway; assay: MDZ DDI study ex vivo IL2/pSTAT5 in CD4+ T-cells; conditions: 150 mg q.d., Day 6, ex vivo stimulation of whole blood
[5] = test system: IL6/pSTAT1 pathway; assay: MDZ DDI study ex vivo IL6/pSTAT1 in CD4+ T-cells; conditions: 150 mg q.d., Day 6, ex vivo stimulation of whole blood
[6] = molecular target: CYP3A4 (Homo sapiens, UniProt P08684); assay: clinical; conditions: in vivo
Chain of CYP3A4 (P08684 whole entry): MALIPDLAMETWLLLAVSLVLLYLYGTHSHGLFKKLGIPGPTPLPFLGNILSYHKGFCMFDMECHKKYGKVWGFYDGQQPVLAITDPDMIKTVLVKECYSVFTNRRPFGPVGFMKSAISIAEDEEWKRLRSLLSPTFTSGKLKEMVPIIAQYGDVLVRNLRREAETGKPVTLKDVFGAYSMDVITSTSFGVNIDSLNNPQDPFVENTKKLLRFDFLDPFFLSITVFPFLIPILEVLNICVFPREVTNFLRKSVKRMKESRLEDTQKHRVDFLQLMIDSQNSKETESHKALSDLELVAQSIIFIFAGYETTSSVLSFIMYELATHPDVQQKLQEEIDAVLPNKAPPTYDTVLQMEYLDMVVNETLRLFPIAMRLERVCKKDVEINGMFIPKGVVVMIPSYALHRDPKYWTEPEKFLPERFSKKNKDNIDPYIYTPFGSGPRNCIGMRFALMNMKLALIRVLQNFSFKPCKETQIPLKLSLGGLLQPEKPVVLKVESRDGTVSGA
Protocol: On Days 1 and 7, single dose of 2 mg MDZ as commercially available liquid formulation, containing 2 mg/mL MDZ administered orally under fed conditions.

Cc1cc(C#N)ncc1Oc1cc(Nc2ccc(N3CCOCC3)nn2)c2ncn(C)c2n1 [Compound 1, 4-methyl-5-[3-methyl-7-[(6-morpholin-4-ylpyridazin-3-yl)amino]imidazo[4,5-b]pyridin-5-yl]oxypyridine-2-carbonitrile]
effect on IFN-α/pSTAT3 pathway [1]: concentration-dependent inhibition | effect on IFN-α/pSTAT1 pathway [2]: concentration-dependent inhibition | effect on IL6/pSTAT3 pathway [3]: Day 1 and Day 6 values were similar; also recorded: no inhibition and no concentration-dependent effect | effect on IL2/pSTAT5 pathway [4]: Day 1 and Day 6 values were similar; also recorded: no inhibition and no concentration-dependent effect | effect on IL6/pSTAT1 pathway [5]: concentration-dependent inhibition

Cc1ncc2n1-c1ccc(Cl)cc1C(c1ccccc1F)=NC2 [MDZ, midazolam]
AUC(0-inf) [6]: 27.9 ng·h/mL | Cmax [6]: 6.24 ng/mL | MDZ AUC0-∞ LS Geometric Mean Ratio (90% CI) [6]: 121 (109; 133) % | AUC(0-inf) ([6]; po, 2 mg): 23.5 ng·h/mL | Cmax ([6]; po, 2 mg): 5.95 ng/mL

— patent US20240325404A1, “TREATMENT OF INFLAMMATORY DISEASES” (Galapagos NV, priority 2021, published 2024)
